Reference: patent publication US20070149404A1, “Microbicidal compositions” (BASF AKTIENGESELLSCHAFT, priority 2003, published 2007)
Counter-ions that a name gives are not always drawn.

Key:
fungi [1] = assay: Efficacy against fungal growth on painted wooden surface (BS3900 G6); format: cell-based; conditions: 0.5% in paint
Experimental: (§1) Testing was performed according to the BS3900 G6 and BBA MOAT 33 methods for evaluation versus fungi and algae, respectively. The methods involve painting a substrate panel with the coating and leaching under running water for 72 hours. The substrates are incubated for 56 days after being inoculated with fungi or algae. Performance is judged by comparing with suitable control samples ie without biocide, a positive control and for fungi with substrate panels that have not been leached.
(§2) Performance rating on painted test substrates (Score of 0, 1 and 2 is considered as a pass) • 0=no growth • 1=trace of growth • 2=growth on 1-10% of test face • 3=growth on 10-30% of test face • 4=growth on 30-70% of test face
(§3) 5=growth on 70-100% of test face.

algae = assay: Efficacy against algal growth on painted plaster surface (BBA MOAT 33); format: cell-based; conditions: 0.5% in paint; for MEAN ALGAL GROWTH RATING 28 days / MEAN ALGAL GROWTH RATING 56 days / % Improved after 56 days (algal growth): painted plaster; for MEAN ALGAL GROWTH RATING 28 days / MEAN ALGAL GROWTH RATING 56 days: leached 72 hours, mean of ratings 0-5; for MEAN ALGAL GROWTH RATING 28 days: 28 days after inoculation; for MEAN ALGAL GROWTH RATING 56 days: 56 days after inoculation; for % Improved after 56 days (algal growth): versus unpreserved paint
Experimental: as §1, §2, §3

Penicillium funiculosum = assay: Intrinsic activity, microtitre plate method, PF; format: cell-based; parameters: key: rating 0 = no activity to 5 = biostatic, may be biocide
Experimental: (§4) The chemistries were tested for their activity against a range of organisms via a microtitre plate method. The test organisms were: • ML—Micrococcus luteus • SA—Staphylococcus aureus • EC—Escherichia coli • PA—Pseudomonas aeruginosa • CF—Citrobacter freundii • PM—Proteus mirabilis • CA—Candida albicans • SC—Saccharomyces cerevisiae • AN—Aspergillus niger • PF—Penicillium funiculosum • AA—Alternaria alternata
(§5) Using the following rating scale: • 0=no activity • 1=minimal inhibition • 2=inhibition • 3=clear inhibition • 4=clear inhibition biostatic, may be biocide activity • 5=biostatic, may be biocide activity
(§6) Readings of 4 and possibly 3 were considered to be valid for biocidal applications.

Escherichia coli = assay: Intrinsic activity, microtitre plate method, EC; format: cell-based; parameters: key: rating 0 = no activity to 5 = biostatic, may be biocide
Experimental: as §4, §5, §6

Citrobacter freundii = assay: Intrinsic activity, microtitre plate method, CF; format: cell-based; parameters: key: rating 0 = no activity to 5 = biostatic, may be biocide
Experimental: as §4, §5, §6

Aspergillus niger = assay: Intrinsic activity, microtitre plate method, AN; format: cell-based; parameters: key: rating 0 = no activity to 5 = biostatic, may be biocide
Experimental: as §4, §5, §6

Fungi [2] = assay: Intrinsic activity, microtitre plate method, mean score over fungi; format: cell-based, CA, SC, AN, PF, AA; conditions: performance against organisms/no of organisms, 0 to <3 poor, >3 inhibition, >4 biostasis, biocidal activity
Experimental: as §4, §5, §6

Micrococcus luteus = assay: Intrinsic activity, microtitre plate method, ML; format: cell-based; parameters: key: rating 0 = no activity to 5 = biostatic, may be biocide
Experimental: as §4, §5, §6

Saccharomyces cerevisiae = assay: Intrinsic activity, microtitre plate method, SC; format: cell-based; parameters: key: rating 0 = no activity to 5 = biostatic, may be biocide
Experimental: as §4, §5, §6

Bacteria = assay: Intrinsic activity, microtitre plate method, mean score over bacteria; format: cell-based, ML, SA, EC, PA, CF, PM; conditions: performance against organisms/no of organisms, 0 to <3 poor, >3 inhibition, >4 biostasis, biocidal activity
Experimental: as §4, §5, §6

Candida albicans = assay: Intrinsic activity, microtitre plate method, CA; format: cell-based; parameters: key: rating 0 = no activity to 5 = biostatic, may be biocide
Experimental: as §4, §5, §6

Proteus mirabilis = assay: Intrinsic activity, microtitre plate method, PM; format: cell-based; parameters: key: rating 0 = no activity to 5 = biostatic, may be biocide
Experimental: as §4, §5, §6

Staphylococcus aureus = assay: Intrinsic activity, microtitre plate method, SA; format: cell-based; parameters: key: 0 = no activity to 5 = biostatic, may be biocide activity
Experimental: as §4, §5, §6

Alternaria alternata = assay: Intrinsic activity, microtitre plate method, AA; format: cell-based; parameters: key: rating 0 = no activity to 5 = biostatic, may be biocide
Experimental: as §4, §5, §6

test bacteria and fungi = assay: Intrinsic activity against bacteria and fungi, microtitre plate method, summary in words; format: cell-based; conditions: for Activity against the test bacteria and fungi: 1000 and 500 ppm a.i.; for Spectrum of activity: at both concentrations (1000 and 500 ppm a.i.)
Experimental: as §4, §5, §6

Pseudomonas aeruginosa = assay: Intrinsic activity, microtitre plate method, PA; format: cell-based; parameters: key: rating 0 = no activity to 5 = biostatic, may be biocide
Experimental: as §4, §5, §6

fungi [3] = assay: Efficacy against fungal growth on painted plaster surface (BS3900 G6); format: cell-based; conditions: 0.5% in paint
Experimental: as §1, with “The substrates are incubated for 56 days after being inoculated with fungi or algae.” left out
as §2, §3

[4] = constant running water for 72 hours, 28 days, mean of ratings 0-5
[5] = constant running water for 72 hours, 56 days, mean of ratings 0-5
[6] = leached 72 hours, versus unpreserved paint
[7] = no leaching with water, 28 days, mean of ratings 0-5
[8] = no leaching with water, 56 days, mean of ratings 0-5

Compound	PF rating (Penicillium funiculosum; 500 ppm a.i.)	PF rating (Penicillium funiculosum; 1000 ppm a.i.)	EC rating (Escherichia coli; 500 ppm a.i.)	EC rating (Escherichia coli; 1000 ppm a.i.)	CF rating (Citrobacter freundii; 500 ppm a.i.)	CF rating (Citrobacter freundii; 1000 ppm a.i.)	AN rating (Aspergillus niger; 500 ppm a.i.)	AN rating (Aspergillus niger; 1000 ppm a.i.)	Fungi Mean Score (Fungi [2]; 500 ppm a.i.)	Fungi Mean Score (Fungi [2]; 1000 ppm a.i.)	ML rating (Micrococcus luteus; 500 ppm a.i.)	ML rating (Micrococcus luteus; 1000 ppm a.i.)	SC rating (Saccharomyces cerevisiae; 500 ppm a.i.)	SC rating (Saccharomyces cerevisiae; 1000 ppm a.i.)	Bacteria Mean Score (Bacteria; 500 ppm a.i.)	Bacteria Mean Score (Bacteria; 1000 ppm a.i.)	CA rating (Candida albicans; 500 ppm a.i.)	CA rating (Candida albicans; 1000 ppm a.i.)	PM rating (Proteus mirabilis; 500 ppm a.i.)	PM rating (Proteus mirabilis; 1000 ppm a.i.)	further results
CCOCn1c(-c2ccc(Cl)cc2)c(C#N)c(Br)c1C(F)(F)F [Chlorfenapyr, 4-Brom-2-(p-chlorphenyl)-1-(ethoxymethyl)-5-(tri-fluormethyl)-pyrrole-3-carbonitril]																					Improvement against fungal growth on the wood surface (fungi [1]): exhibited an improvement; MEAN FUNGAL GROWTH RATING - WOOD SUBSTRATE 28 days leached (fungi [1]; [4]): 3 (3=growth on 10-30% of test face); MEAN FUNGAL GROWTH RATING - WOOD SUBSTRATE 56 days leached (fungi [1]; [5]): 3.5; % Improved After 56 days leached (fungal, wood) (fungi [1]; [6]): 12.5%; MEAN FUNGAL GROWTH RATING - WOOD SUBSTRATE 28 days as applied (fungi [1]; [7]): 5 (5=growth on 70-100% of test face); MEAN FUNGAL GROWTH RATING - WOOD SUBSTRATE 56 days as applied (fungi [1]; [8]): 5 (5=growth on 70-100% of test face); MEAN ALGAL GROWTH RATING 28 days (algae): 3 (3=growth on 10-30% of test face); MEAN ALGAL GROWTH RATING 56 days (algae): 3.5; % Improved after 56 days (algal growth) (algae): 12.5%; Improvement against algal growth on the plaster surface (algae): exhibited an improvement
CC(Oc1ccc(Cl)cc1Cl)C(=O)O (stereo not shown) [Dichlorprop, 2,4-Dichlorophenoxy-propionic acid]	5	5	3	5	3	5	5	5	3.6	5.0	5	5	1	5	3.3	5.0	2	5	3	5	SA rating (Staphylococcus aureus; 500 ppm a.i.): 3; SA rating (Staphylococcus aureus; 1000 ppm a.i.): 5; AA rating (Alternaria alternata; 500 ppm a.i.): 5; AA rating (Alternaria alternata; 1000 ppm a.i.): 5; Activity against the test bacteria and fungi (test bacteria and fungi): good activity; PA rating (Pseudomonas aeruginosa; 500 ppm a.i.): 3; PA rating (Pseudomonas aeruginosa; 1000 ppm a.i.): 5
CCCCCCCCCCCCNC(=N)N [Dodine, 1-dodecylguanidinium hydrochloride or—acetate]	5	5	5	5	5	5	5	5	5.0	5.0	5	5	5	5	4.3	4.7	5	5	5	5	SA rating (Staphylococcus aureus; 500 ppm a.i.): 5; SA rating (Staphylococcus aureus; 1000 ppm a.i.): 5; AA rating (Alternaria alternata; 500 ppm a.i.): 5; AA rating (Alternaria alternata; 1000 ppm a.i.): 5; Activity against the test bacteria and fungi (test bacteria and fungi): good activity; PA rating (Pseudomonas aeruginosa; 500 ppm a.i.): 1; PA rating (Pseudomonas aeruginosa; 1000 ppm a.i.): 3
Fc1ccc([C@@]2(Cn3cncn3)O[C@H]2c2ccccc2Cl)cc1 [Epoxiconazole, cis-3-(2-Chlorphenyl)-2-(4-fluorphenyl)-2-(triazol-1-ylmethyl)-oxiran]	3	3	0	0	0	0	5	5	4.6	4.6	0	0	5	5	0.0	0.0	5	5	0	0	Improvement against fungal growth on the plaster surface (fungi [3]; as applied or after leaching): exhibited an improvement; MEAN FUNGAL GROWTH RATING - PLASTER SUBSTRATE 28 days leached (fungi [3]; [4]): 1.5; MEAN FUNGAL GROWTH RATING - PLASTER SUBSTRATE 56 days leached (fungi [3]; [5]): 2.5; % Improved After 56 days leached (fungal, plaster) (fungi [3]; [6]): 29%; MEAN FUNGAL GROWTH RATING - PLASTER SUBSTRATE 28 days as applied (fungi [3]; [7]): 3.5; MEAN FUNGAL GROWTH RATING - PLASTER SUBSTRATE 56 days as applied (fungi [3]; [8]): 3.5; % Improved After 56 days as applied (fungal, plaster) (fungi [3]; no leaching, versus unpreserved paint): 30%; Improvement against fungal growth on the wood surface (fungi [1]): only showed marginal improvement; MEAN ALGAL GROWTH RATING 28 days (algae): 2.5; MEAN ALGAL GROWTH RATING 56 days (algae): 2.5; % Improved after 56 days (algal growth) (algae): 37.5%; Improvement against algal growth on the plaster surface (algae): exhibited an improvement; SA rating (Staphylococcus aureus; 500 ppm a.i.): 0; SA rating (Staphylococcus aureus; 1000 ppm a.i.): 0; AA rating (Alternaria alternata; 500 ppm a.i.): 5; AA rating (Alternaria alternata; 1000 ppm a.i.): 5; Spectrum of activity (test bacteria and fungi): only display antifungal activity; PA rating (Pseudomonas aeruginosa; 500 ppm a.i.): 0; PA rating (Pseudomonas aeruginosa; 1000 ppm a.i.): 0
(1RS, 5RS;1RS, 5SR)-5- (4-chlorobenzyl)-2,2-di- methyl-1-(1H-1,2,4-tri- azol-1-ylmethyl)cyclo- pentanol [Metconazole]	5	5	0	0	0	0	5	5	4.2	4.2	2	3	3	3	0.5	0.7	3	3	0	0	SA rating (Staphylococcus aureus; 500 ppm a.i.): 1; SA rating (Staphylococcus aureus; 1000 ppm a.i.): 1; AA rating (Alternaria alternata; 500 ppm a.i.): 5; AA rating (Alternaria alternata; 1000 ppm a.i.): 5; Spectrum of activity (test bacteria and fungi): only display antifungal activity; PA rating (Pseudomonas aeruginosa; 500 ppm a.i.): 0; PA rating (Pseudomonas aeruginosa; 1000 ppm a.i.): 0
